According to patent US12178908B2, “Tolerogenic liposomes and methods of use thereof” (AnTolRx, Inc., priority 2018, dated 2024):
≈ marks a conversion by molar mass, not a printed value. Read-outs that look alike come from different tables or passages of the source. One block for each molecule: values may come before it.

How the values were obtained:
[1] = tested on: EAE; details: cited from earlier work
[2] = Solubility of ITE in conventional solvents; format: physicochemical
From the text: 2-(1H-Indol-3-ylcarbonyl)-4-thiazolecarboxylic acid methyl ester (ITE) is a potent aryl hydrocarbon receptor agonist which is difficult to formulate in nanoparticulate form (including gold and PLGA nanoparticles and many conventional liposomal compositions, for example). […] ITE is also highly prone to self-aggregation.

[3] = format: physicochemical
Experimental: A stability assessment was performed in which liposomes from batch 1 were stored in HBS for one month at 4° C. and re-assayed.
• Lipid ratios were varied in the following range for each lipid: • Egg PC or HEPC: ˜53-72 mol % • Cholesterol: ˜25-44 mol % • PEG2000-PE: 1.5 to 6.25 mol % ITE was fixed at 0.5% by weight to the total lipid mass for all the batches tested. ITE was added from a DMSO stock. Batches were observed daily for any signs of precipitation/aggregation

[4] = tested on: splenocytes of 2D2 mice; assay: Proliferation of 2D2 splenocytes stimulated in vitro (Cell Titer Blue); format: cell-based; details: 10 μg MOG; 1 μg ITE; 72 hours at 37° C.
Experimental: Splenocytes were harvested from 2D2 mice, which express a transgenic 2D2 T cell […] (TCR) specific for MOG35-55 and stimulated in vitro with 10 μg of MOG delivered either freely (Free MOG), loaded in egg-PC liposomes alone (MOG-L) or loaded in egg-PC liposomes and additionally stimulated with ITE-loaded egg-PC liposomes (at a dose of 1 μg ITE). Cell proliferation was assessed after incubation at 37° C. for 72 hours using a Cell Titer Blue cell proliferation assay.

solubility ([2]; ethanol, organic solvent or mixture): ~3300 µM (≈ 945 µg/mL)
solubility ([2]; methanol, organic solvent or mixture): ~3000 µM (≈ 859 µg/mL)
solubility ([2]; water): ~115 µM (≈ 32.9 µg/mL)
Molecule: COC(=O)c1csc(C(=O)c2c[nH]c3ccccc23)n1 [ITE, 2-(1H-Indol-3-ylcarbonyl)-4-thiazolecarboxylic acid methyl ester]
EAE amelioration ([1]; daily 200 μg per mouse, i.p. or orally, Quintana et al. PNAS 2010): ameliorated

Molecule: Clc1cc2c(cc1Cl)Oc1cc(Cl)c(Cl)cc1O2 [TCDD, 2,3,7,8-tetrachlorodibenzo-p-dioxin]
potency relative to ITE in most in vivo studies ([1]; TCDD vs ITE): ~1,000 fold
EAE amelioration ([1]; dose of 100 ng, Quintana et al. Nature 2008): not
EAE amelioration ([1]; dose of 1 μg, Quintana et al. Nature 2008): ameliorated EAE

stability (observation) [3]: in liposome, not stable
Molecule: DMPC

Molecule: Free MOG: MOG35-55 peptide MEVGWYRSPFSRVVHLYRNGK (SEQ ID NO: 82) delivered freely
2D2 cell proliferation [4]: induced 2D2 cell proliferation
